Consider one molecule from patent publication US20140335050A1, “METHODS, COMPOSITIONS, AND KITS FOR THE TREATMENT OF CANCER” (The General Hospital Corporation, priority 2011, published 2014).

The assay concerns MM96L+ melanoma cell line. As to the kind of experiment: Intracellular antibody staining and flow cytometry (Melan-A/MART-1, gp100/HMB45). Conditions: MM96L+ (BRAF M/WT, NRAS WT); 3 days; 17-AEP 1.00, CCT018159 5.00, PU-H71 0.30 μg/ml. It counts as cell-based, human. The procedure:
Several cell lines expressing varying native-sequences, (wild-type (WT) or mutant (M) alleles of these genes were evaluated), to determine if there is a relationship between levels of Hsp90 inhibitor-mediated antigen up-regulation and BRAF and NRAS mutational status. Mutant status of the NRAS and BRAF loci were determined previously.
Cells were plated at a density of 1×10^5 in 1 ml of medium in a 24-well plate and cultured for varying times as indicated in results. Typically, 3 days of culture in the presence of Hsp90 inhibitors was optimal for the functional studies performed. After incubation, cells were collected by trypsinization and then evaluated by flow cytometry.
Intracellular staining and flow cytometric analyses of cytoplasmic Melan-A/MART-1, and gp100 expression were performed as described previously. Cells were fixed with 1% formaldehyde, permeabilized with 0.1% saponin, stained with monoclonal antibodies to melanocyte antigens. Antibodies were obtained with specificity for: Melan-A/MART-1 from Vector Labs (Burlingame, Calif.); gp100/HMB45 from DakoCytomation (Carpinteria, Calif.) and then visualized with goat anti-mouse FITC-conjugated secondary antibody from Invitrogen (Frederick, Md.). The level of EGFP was determined by flow cytometry of unfixed cells washed and resuspended in 1×PBS. […]

With `CCc1cc(-c2n[nH]c(C)c2-c2ccc3c(c2)OCCO3)c(O)cc1O` [CCT018159], the “HMB45, level of induction relative to untreated control cells” value came out at 1.81 and the “MART-1, level of induction relative to untreated control cells” value was 3.04.
